These results are taken from a flash point compilation (Sun et al. 2020).

Molecules are shown by their SMILES.

Molecule `Nc1ccccc1[N+](=O)[O-]` [2-nitroaniline] registered a flash point of 168.00 °C.

Molecule `CCCCCCCCC1CO1` (configuration not stated) [2-octyloxirane] returned a flash point of 78.00 °C.

The molecule `OCCOc1ccccc1` [2-phenoxyethanol] registered a flash point of 121.00 °C.

`N#CCc1ccccc1` [2-phenylacetonitrile] showed a flash point of 102.00 °C.

As to `OCCc1ccccc1` [2-phenylethanol], the flash point was found to be 96.00 °C.

For the molecule `OCCOCc1ccccc1` [2-phenylmethoxyethanol], the flash point amounted to 129.00 °C.

In turn, `c1ccc(C2CO2)cc1` (configuration not stated) [2-phenyloxirane] registered a flash point of 79.00 °C.

As to `NCCN1CCNCC1` [2-piperazin-1-ylethanamine], the flash point stood at 93.00 °C.

`CC(C)c1ccc2ccccc2c1` [2-propan-2-ylnaphthalene]: the flash point was 122.00 °C.

For `O=C(O)CS` [2-sulfanylacetic acid], the flash point is 113.00 °C.

For `COc1ccc(O)c(C(C)(C)C)c1.COc1ccc(O)cc1C(C)(C)C` [2-tert-butyl-4-methoxyphenol;3-tert-butyl-4-methoxyphenol], the flash point was determined as 113.00 °C.

Take `COc1ccc(O)c(C(C)(C)C)c1` [2-tert-butyl-4-methoxyphenol]: the flash point amounted to 156.00 °C.

As for `CC(C)(C)OOC(C)(C)C` [2-tert-butylperoxy-2-methylpropane], the flash point was determined as 18.00 °C.

In the case of `CC(C)(C)c1ccccc1O` [2-tert-butylphenol], the flash point amounted to 110.00 °C.

`c1ccc2n[nH]nc2c1` [2H-benzotriazole] displayed a flash point of 170.00 °C.

Molecule `C=CC(F)(F)C(F)(F)C(F)(F)C(F)(F)F` [3,3,4,4,5,5,6,6,6-nonafluorohex-1-ene] registered a flash point of -17.00 °C.

For the molecule `CC1CC(O)CC(C)(C)C1` (configuration not stated) [3,3,5-trimethylcyclohexan-1-ol], the flash point turned out to be 74.00 °C.

For `O=CC1CCC=CO1` (configuration not stated) [3,4-dihydro-2H-pyran-2-carbaldehyde], the flash point was 48.00 °C.

Turning to `C1=COCCC1` [3,4-dihydro-2H-pyran], the flash point is -18.00 °C.

For the molecule `Cc1ccc(N)cc1C` [3,4-dimethylaniline], the flash point was 98.00 °C.

In turn, `CC(CCO)CC(C)(C)C` (configuration not stated) [3,5,5-trimethylhexan-1-ol] had a flash point of 93.00 °C.

In turn, `CN1CSC(=S)N(C)C1` [3,5-dimethyl-1,3,5-thiadiazinane-2-thione] yielded a flash point of 93.00 °C.

`Cc1cc(C)cc(N)c1` [3,5-dimethylaniline] came in with a flash point of 93.00 °C.

`C=CC(C)(O)CCC=C(C)C` (configuration not stated) [3,7-dimethylocta-1,6-dien-3-ol]: the flash point was determined as 78.00 °C.

`CC(C)=CCCC(C)=CC=O` [3,7-dimethylocta-2,6-dienal] displayed a flash point of 102.00 °C.

The molecule `CN1CCCC1c1cccnc1` (configuration not stated) [3-(1-methylpyrrolidin-2-yl)pyridine] displayed a flash point of 101.00 °C.

`CC1CCCCN1CCCOC(=O)c1ccc(Cl)c(Cl)c1` (configuration not stated) [3-(2-methylpiperidin-1-yl)propyl 3,4-dichlorobenzoate] showed a flash point of 71.00 °C.

`CCCCCCCCC/C=C/CC1CC(=O)OC1=O` (configuration not stated) [3-[(E)-dodec-2-enyl]oxolane-2,5-dione] yielded a flash point of 178.00 °C.

`O=C(O)CCP(CCC(=O)O)CCC(=O)O` [3-[bis(2-carboxyethyl)phosphanyl]propanoic acid]: the flash point turned out to be 202.00 °C.

`CC(=O)C1C(=O)C=C(C)OC1=O` (configuration not stated) [3-acetyl-6-methylpyran-2,4-dione] yielded a flash point of 69.00 °C.

Molecule `Oc1cccc(Br)c1` [3-bromophenol] showed a flash point of 110.00 °C.

In turn, `OCCCBr` [3-bromopropan-1-ol] returned a flash point of 94.00 °C.

For `C=C(C)CCl` [3-chloro-2-methylprop-1-ene], the flash point is -13.00 °C.

Consider `OCCCCl` [3-chloropropan-1-ol], for which the flash point was determined as 73.00 °C.

For the molecule `OCC(O)CCl` (configuration not stated) [3-chloropropane-1,2-diol], the flash point was found to be 59.00 °C.

`CCOc1cc(C=O)ccc1O` [3-ethoxy-4-hydroxybenzaldehyde] had a flash point of 145.00 °C.

Consider `COC(C)CCOC(C)=O` (configuration not stated) [3-methoxybutyl acetate], for which the flash point is 77.00 °C.

As for `Cc1cccc(C#N)c1` [3-methylbenzonitrile], the flash point was 87.00 °C.

The molecule `CC(C)=CCO` [3-methylbut-2-en-1-ol] had a flash point of 50.00 °C.

`CC(C)=CC=O` [3-methylbut-2-enal] had a flash point of 37.00 °C.

The molecule `CC(C)C(C)O` (configuration not stated) [3-methylbutan-2-ol] returned a flash point of 33.00 °C.

For `CC(=O)C(C)C` [3-methylbutan-2-one], the flash point came out at 6.00 °C.

Consider `CC(C)CC=O` [3-methylbutanal], for which the flash point was found to be 13.00 °C.

As to `CC(=O)OCCC(C)C` [3-methylbutyl acetate], the flash point is 25.00 °C.

As for `CC1CCCC(O)C1` (configuration not stated) [3-methylcyclohexan-1-ol], the flash point worked out at 62.00 °C.

Consider `Cc1cccc(O)c1` [3-methylphenol], for which the flash point amounted to 86.00 °C.

Molecule `Cc1cccnc1` [3-methylpyridine] came in with a flash point of 36.00 °C.

The molecule `OCC=Cc1ccccc1` [3-phenylprop-2-en-1-ol] came in with a flash point of 126.00 °C.

In the case of `O=CC=Cc1ccccc1` [3-phenylprop-2-enal], the flash point was 120.00 °C.

In the case of `C=CCOCC=C` [3-prop-2-enoxyprop-1-ene], the flash point was -7.00 °C.

`CCCOCCCO` [3-propoxypropan-1-ol] registered a flash point of 53.00 °C.

In turn, `CCO[Si](CCCN)(OCC)OCC` [3-triethoxysilylpropan-1-amine] registered a flash point of 98.00 °C.

As to `C=C(C)C(=O)OCCC[Si](OC)(OC)OC` [3-trimethoxysilylpropyl 2-methylprop-2-enoate], the flash point is 92.00 °C.

Turning to `O=C1OC(=O)C2CCCCC12` (configuration not stated) [3a,4,5,6,7,7a-hexahydro-2-benzofuran-1,3-dione], the flash point was found to be 149.00 °C.

As to `CC1(C)COCN1` [4,4-dimethyl-1,3-oxazolidine], the flash point is 49.00 °C.

`COc1cc(-c2ccc(N)c(OC)c2)ccc1N` [4-(4-amino-3-methoxyphenyl)-2-methoxyaniline] registered a flash point of 206.00 °C.

In turn, `Nc1ccc(Oc2ccc(N)cc2)cc1` [4-(4-aminophenoxy)aniline] gave a flash point of 219.00 °C.

As for `Nc1ccc(Cc2ccc(N)cc2)cc1` [4-[(4-aminophenyl)methyl]aniline], the flash point turned out to be 221.00 °C.

Molecule `Nc1ccc(O)cc1` [4-aminophenol] returned a flash point of 195.00 °C.

For the molecule `O=Cc1ccc(Cl)cc1` [4-chlorobenzaldehyde], the flash point amounted to 88.00 °C.

`O=C(Nc1cccc(Cl)c1)OCC#CCCl` [4-chlorobut-2-ynyl N-(3-chlorophenyl)carbamate] showed a flash point of 50.00 °C.

As to `Oc1ccc(Cl)cc1` [4-chlorophenol], the flash point worked out at 121.00 °C.

As to `COP(=S)(OC)Oc1ccc(C#N)cc1` [4-dimethoxyphosphinothioyloxybenzonitrile], the flash point came to 104.00 °C.

`CCOc1ccc(N)cc1` [4-ethoxyaniline] displayed a flash point of 116.00 °C.

`CCc1ccc(O)cc1` [4-ethylphenol] had a flash point of 104.00 °C.

Take `Nc1ccc(F)cc1` [4-fluoroaniline]: the flash point stood at 74.00 °C.

`CC(=O)CC(C)(C)O` [4-hydroxy-4-methylpentan-2-one] registered a flash point of 52.00 °C.

`COC(C)(C)CC(C)=O` [4-methoxy-4-methylpentan-2-one]: the flash point was 61.00 °C.

`COc1ccc(C=O)cc1` [4-methoxybenzaldehyde] displayed a flash point of 116.00 °C.

For the molecule `CC1=CCC(O)(C(C)C)CC1` (configuration not stated) [4-methyl-1-propan-2-ylcyclohex-3-en-1-ol], the flash point amounted to 79.00 °C.

Regarding `Cc1ccc(N)cc1N` [4-methylbenzene-1,3-diamine], the flash point worked out at 149.00 °C.

With `Cc1ccc(S(N)(=O)=O)cc1` [4-methylbenzenesulfonamide], the flash point stood at 202.00 °C.

As to `Cc1ccc(S(=O)(=O)O)cc1` [4-methylbenzenesulfonic acid], the flash point was 184.00 °C.

The molecule `Cc1ccc(S(=O)(=O)Cl)cc1` [4-methylbenzenesulfonyl chloride] displayed a flash point of 128.00 °C.

Turning to `CN1CCOCC1` [4-methylmorpholine], the flash point came to 24.00 °C.

Consider `CC1CC(=O)O1` (configuration not stated) [4-methyloxetan-2-one], for which the flash point was 60.00 °C.

Molecule `C=CCC(C)C` [4-methylpent-1-ene] showed a flash point of -32.00 °C.

`CC(C)CC(C)N` (configuration not stated) [4-methylpentan-2-amine] gave a flash point of 13.00 °C.

In turn, `CC(=O)OC(C)CC(C)C` (configuration not stated) [4-methylpentan-2-yl acetate] had a flash point of 45.00 °C.

Molecule `Cc1ccc(O)cc1` [4-methylphenol] came in with a flash point of 86.00 °C.

The molecule `Cc1ccncc1` [4-methylpyridine] had a flash point of 57.00 °C.

As for `O=[N+]([O-])c1ccc(Nc2ccccc2)cc1` [4-nitro-N-phenylaniline], the flash point was determined as 190.00 °C.

Take `Nc1ccc([N+](=O)[O-])cc1` [4-nitroaniline]: the flash point came to 199.00 °C.

Molecule `O=C(O)c1ccc([N+](=O)[O-])cc1` [4-nitrobenzoic acid] displayed a flash point of 202.00 °C.

Turning to `O=[N+]([O-])c1ccc(O)cc1` [4-nitrophenol], the flash point amounted to 192.00 °C.

Consider `CCCCCCCCCc1ccc(O)cc1` [4-nonylphenol], for which the flash point was determined as 113.00 °C.

`CCCCCCCCc1ccc(Nc2ccc(CCCCCCCC)cc2)cc1` [4-octyl-N-(4-octylphenyl)aniline] returned a flash point of 213.00 °C.
